We go through 20 compounds from patent US10968215B2 (SHANGHAI HAIHE PHARMACEUTICAL CO., LTD., priority 2016, dated 2021).

pIC50: −log10 of the molar value.

For one assay, the target named is PRC2 complex (EZH2 Y641F/EED/SUZ12/RbAp48/AEBP2) (Homo sapiens (Human), UniProt Q15910, Y641F). The assay can be described thus: Activity of a compound to PRC2 complex (EZH2 Y641F), HTRF.
Chain of PRC2 complex (EZH2 Y641F/EED/SUZ12/RbAp48/AEBP2) (Q15910 whole entry Y641F): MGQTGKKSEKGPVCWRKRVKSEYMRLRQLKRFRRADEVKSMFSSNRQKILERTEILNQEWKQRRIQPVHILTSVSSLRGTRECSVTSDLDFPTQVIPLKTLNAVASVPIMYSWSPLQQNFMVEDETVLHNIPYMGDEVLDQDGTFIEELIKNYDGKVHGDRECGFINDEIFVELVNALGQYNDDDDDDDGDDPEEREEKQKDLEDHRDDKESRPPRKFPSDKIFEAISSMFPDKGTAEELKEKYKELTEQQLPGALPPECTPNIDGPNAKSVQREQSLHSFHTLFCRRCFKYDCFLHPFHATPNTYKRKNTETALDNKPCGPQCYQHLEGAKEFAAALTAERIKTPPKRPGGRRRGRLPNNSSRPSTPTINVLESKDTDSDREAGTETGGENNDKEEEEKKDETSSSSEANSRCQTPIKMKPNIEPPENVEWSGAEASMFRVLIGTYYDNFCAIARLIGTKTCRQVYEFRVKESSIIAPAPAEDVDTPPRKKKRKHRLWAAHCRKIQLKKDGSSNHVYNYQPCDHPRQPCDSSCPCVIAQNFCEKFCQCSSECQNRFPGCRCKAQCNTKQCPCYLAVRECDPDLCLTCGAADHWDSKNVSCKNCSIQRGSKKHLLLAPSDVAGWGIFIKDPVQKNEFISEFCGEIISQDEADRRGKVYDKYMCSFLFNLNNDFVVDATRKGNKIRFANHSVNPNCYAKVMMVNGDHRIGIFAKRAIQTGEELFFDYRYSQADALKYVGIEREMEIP
Chain of PRC2 complex (EZH2 Y641F/EED/SUZ12/RbAp48/AEBP2) (O75530 whole entry partner): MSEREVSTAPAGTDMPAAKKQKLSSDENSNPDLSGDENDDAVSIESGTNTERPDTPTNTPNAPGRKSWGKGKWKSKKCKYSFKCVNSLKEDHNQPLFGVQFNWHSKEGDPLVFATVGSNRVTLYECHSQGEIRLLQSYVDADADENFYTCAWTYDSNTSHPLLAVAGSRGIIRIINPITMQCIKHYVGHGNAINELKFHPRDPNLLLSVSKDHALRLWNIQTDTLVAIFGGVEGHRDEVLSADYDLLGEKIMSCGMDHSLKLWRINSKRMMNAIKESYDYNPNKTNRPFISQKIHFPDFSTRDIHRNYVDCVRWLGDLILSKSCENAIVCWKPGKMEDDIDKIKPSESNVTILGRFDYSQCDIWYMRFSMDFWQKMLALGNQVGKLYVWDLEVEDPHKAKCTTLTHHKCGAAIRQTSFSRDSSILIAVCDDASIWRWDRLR
Chain of PRC2 complex (EZH2 Y641F/EED/SUZ12/RbAp48/AEBP2) (Q15022 whole entry partner): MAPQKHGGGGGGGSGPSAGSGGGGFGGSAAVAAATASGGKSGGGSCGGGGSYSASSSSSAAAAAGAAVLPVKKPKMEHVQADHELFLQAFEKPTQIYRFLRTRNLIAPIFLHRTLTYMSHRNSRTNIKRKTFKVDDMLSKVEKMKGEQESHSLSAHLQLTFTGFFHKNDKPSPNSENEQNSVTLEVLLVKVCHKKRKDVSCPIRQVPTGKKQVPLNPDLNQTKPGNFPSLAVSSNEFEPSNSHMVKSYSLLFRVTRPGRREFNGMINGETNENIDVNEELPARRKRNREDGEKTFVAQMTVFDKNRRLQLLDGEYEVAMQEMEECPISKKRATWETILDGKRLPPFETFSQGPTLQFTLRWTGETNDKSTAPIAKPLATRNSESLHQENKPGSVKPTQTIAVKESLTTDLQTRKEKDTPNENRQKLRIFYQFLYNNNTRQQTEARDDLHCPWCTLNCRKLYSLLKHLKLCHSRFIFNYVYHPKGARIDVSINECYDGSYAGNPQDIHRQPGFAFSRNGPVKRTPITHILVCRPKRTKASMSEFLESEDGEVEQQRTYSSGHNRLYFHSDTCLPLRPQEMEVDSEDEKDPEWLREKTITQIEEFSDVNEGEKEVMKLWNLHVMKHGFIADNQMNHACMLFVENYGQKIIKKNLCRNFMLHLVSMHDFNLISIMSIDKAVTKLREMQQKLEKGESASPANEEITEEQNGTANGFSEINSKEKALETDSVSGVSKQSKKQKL
Chain of PRC2 complex (EZH2 Y641F/EED/SUZ12/RbAp48/AEBP2) (Q09028 whole entry partner): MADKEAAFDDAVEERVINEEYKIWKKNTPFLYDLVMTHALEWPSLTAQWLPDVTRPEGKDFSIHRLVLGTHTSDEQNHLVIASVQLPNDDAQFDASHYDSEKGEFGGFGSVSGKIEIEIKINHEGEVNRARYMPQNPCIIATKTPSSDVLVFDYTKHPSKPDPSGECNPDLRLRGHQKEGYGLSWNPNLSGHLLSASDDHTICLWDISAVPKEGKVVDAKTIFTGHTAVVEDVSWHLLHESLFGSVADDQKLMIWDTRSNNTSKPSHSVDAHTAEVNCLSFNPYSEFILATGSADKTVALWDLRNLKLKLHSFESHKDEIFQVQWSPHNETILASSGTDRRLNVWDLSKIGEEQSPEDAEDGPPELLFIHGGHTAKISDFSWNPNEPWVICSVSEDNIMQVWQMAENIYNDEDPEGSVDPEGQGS
Chain of PRC2 complex (EZH2 Y641F/EED/SUZ12/RbAp48/AEBP2) (Q6ZN18 whole entry partner): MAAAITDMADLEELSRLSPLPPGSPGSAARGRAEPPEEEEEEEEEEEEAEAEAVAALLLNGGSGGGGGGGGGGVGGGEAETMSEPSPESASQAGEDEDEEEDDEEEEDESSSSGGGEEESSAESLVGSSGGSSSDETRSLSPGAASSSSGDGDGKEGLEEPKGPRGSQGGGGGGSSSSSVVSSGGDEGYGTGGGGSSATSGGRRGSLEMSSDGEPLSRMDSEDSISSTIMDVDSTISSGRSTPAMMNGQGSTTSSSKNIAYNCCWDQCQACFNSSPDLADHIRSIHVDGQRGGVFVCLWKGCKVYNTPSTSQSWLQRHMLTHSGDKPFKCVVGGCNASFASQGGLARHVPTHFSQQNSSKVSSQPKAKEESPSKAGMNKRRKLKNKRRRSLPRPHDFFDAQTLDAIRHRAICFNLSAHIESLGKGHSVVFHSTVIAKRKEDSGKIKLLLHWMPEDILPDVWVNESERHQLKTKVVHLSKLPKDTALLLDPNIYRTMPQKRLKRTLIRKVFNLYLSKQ
Conditions: not given
Background: TR-FRET usually uses a lanthanide donor and a delayed reading to cut background.
For orientation: pIC50 means the negative decadic logarithm of the IC50, by convention in mol/L. `Cc1cc(C)c(CNC(=O)c2cc3cc(Br)cn3c(C(C)N3CCNCC3)c2C)c(=O)[nH]1` (centres unmarked) [Example 100] gave a pIC50 of 6.00 to 7.00.
For the compound `COc1cc(C)[nH]c(=O)c1CNC(=O)c1cc2cc(-c3nccn3C)cn2c(C(C)N2CCN(CC(F)(F)F)CC2)c1C` (centres unmarked) [Example 109, N-((4-methoxy-6-methyl-2-oxo-1,2-dihydropyridin-3-yl)methyl)-6-methyl-2-(1-methyl-1H-imidazol-2-yl)-5-(1-(4-(2,2,2-trifluoroethyl)piperazin-1-yl)ethyl)indolizine-7-carboxamide], the pIC50 was 6.00 to 7.00.
The same measure, in the same setting: for `Cc1cc(C)c(CNC(=O)c2cc3cc(-c4cccnc4)cn3c(C(C)N3CCC(N(C)C)CC3)c2C)c(=O)[nH]1` (centres unmarked) [Example 49, N-((4,6-dimethyl-2-oxo-1,2-dihydropyridin-3-yl)methyl)-5-(1-(4-(dimethylamino)piperidin-1-yl)ethyl)-6-methyl-2-(pyridin-3-yl)indolizine-7-carboxamide] the value was above 7.00.

The same assay, now with this note: read-out: IC50 (EZH2_Y641F); EZH2 Y641F PRC2 complex, HTRF; class symbols.
As to `Cc1cc(C)c(CNC(=O)c2cc3c(-c4cccc(N5CCOCC5)c4)ccn3c(C(C)N3CCOCC3)c2C)c(=O)[nH]1` (centres unmarked) [Example 116, N-((4,6-dimethyl-2-oxo-1,2-dihydropyridin-3-yl)methyl)-1-(3-(dimethylamine)phenyl)-6-methyl-5-(1-morpholinylethyl)indolizine-7-carboxamide], the pIC50 was above 7.00.
Still for that read-out and setting: for `COc1cc(C)[nH]c(=O)c1CNC(=O)c1cc2cc(-c3nccn3C)cn2c(C(C)N2CCC(N(C)C)CC2)c1C` (centres unmarked) [Example 107] the value was above 7.00; for `Cc1cc(C)c(CNC(=O)c2cc3cc(-c4ccn[nH]4)cn3c(C(C)N3CCOCC3)c2C)c(=O)[nH]1` (centres unmarked) [Example 112, N-((4,6-dimethyl-2-oxo-1,2-dihydropyridin-3-yl)methyl)-6-methyl-5-(1-morpholinoethyl)-2-(pyrazol-5-yl)indolizine-7-carboxamide], above 7.00; for `Cc1cc(C)c(CNC(=O)c2cc3cc(-c4cncn4C)cn3c(C(C)N3CCOCC3)c2C)c(=O)[nH]1` (centres unmarked) [Example 86, N-((4,6-dimethyl-2-oxo-1,2-dihydropyridin-3-yl)methyl)-6-methyl-2-(1-methyl-1H-imidazole-5-yl)-5-(1-morpholinoethyl)indolizine-7-carboxamide], above 7.00.
Take `COc1cc(-c2cc3cc(C(=O)NCc4c(C)cc(C)[nH]c4=O)c(C)c(C(C)N4CCC(N(C)C)CC4)n3c2)cc(OC)c1OC` (centres unmarked) [Example 92, N-((4,6-dimethyl-2-oxo-1,2-dihydropyridin-3-yl)methyl)-5-(1-(4-(dimethylamino)piperidine-1-yl)ethyl)-6-methyl-2-(3,4,5-trimethoxyphenyl)-indolizine-7-carboxamide]: the pIC50 was above 7.00.
As for “N-((4,6-dimethyl-2-oxo-1,2-dihydropyridin-3-yl)methyl)-6-methyl-5-(1-morpholinylethyl)-2-(1-ethyl-1H-pyrazole)indolizine-7-carboxamide [Example 113]”, the pIC50 was above 7.00.
The same measure, in the same setting: for `Cc1cc(C)c(CNC(=O)c2cc3cc(Br)cn3c(C(C)N3CCN(C(=O)CO)CC3)c2C)c(=O)[nH]1` (centres unmarked) [Example 101] the value was 6.00 to 7.00.
Still for that read-out and setting: for `Cc1cc(C)c(CNC(=O)c2cc3cc(Br)cn3c(C(C)N3CCC(F)(F)CC3)c2C)c(=O)[nH]1` (centres unmarked) [Example 122] the value was 6.00 to 7.00; for “N-((4,6-dimethyl-2-oxo-1,2-dihydropyridin-3-yl)methyl)-2-(4-((dimethylamino)methyl)phen yl))-6-methyl-5-(1-morpholinoethyl)indolizine-7-carboxamide [Example 75]”, 6.00 to 7.00; for `COc1cc(C)[nH]c(=O)c1CNC(=O)c1cc2c(-c3ccn[nH]3)ccn2c(N(C)C2CCN(CC(F)(F)F)CC2)c1C` [Compound 202, N-((4-methoxy-6-methyl-2-oxo-1,2-dihydropyridin-3-yl)methyl)-6-methyl-5-(methyl(1-(2,2,2-trifluoroethyl)piperidin-4-yl)amino)-1-(1H-pyrazol-5-yl)indolizine-7-carboxamide], above 7.00.
As for `COc1cc(C)[nH]c(=O)c1CNC(=O)c1cc2c(-c3ccnc(N(C)C)c3)ccn2c([C@H](C)N2CCN(CC(F)(F)F)CC2)c1C` (single isomer, unassigned) [Compound 172, (S)-1-(2-(dimethylamino)pyridin-4-yl)-N-((4-methoxy-6-methyl-2-oxo-1,2-dihydropyridine-3-yl)methyl)-6-methyl-5-(1-(4-(2,2,2-trifluoroethyl)piperazin-1-yl)ethyl)indolizine-7-carboxamide or (R) 1-(2-(dimethylamino)pyridin-4-yl)-N-((4-methoxy-6-methyl-2-oxo-1,2-dihydropyridine-3-yl)methyl)-6-methyl-5-(1-(4-(2,2,2-trifluoroethyl)piperazin-1-yl)ethyl)indolizine-7-carboxamide], the pIC50 was 6.00 to 7.00.
The same measure, in the same setting: for `Cc1cc(C)c(CNC(=O)c2cc3cc(-c4cccnc4)cn3c(C(C)N3CCC(N(C)C)CC3)c2C)c(=O)[nH]1` (centres unmarked) [Example 48, N-((4,6-dimethyl-2-oxo-1,2-dihydropyridin-3-yl)methyl)-6-methyl-5-(1-morphinolinylethyl)-2-(tetrahydro-2H-pyran-4-yl)indolizine-7-carboxamide] the value was above 7.00; for `COc1cc(C)[nH]c(=O)c1CNC(=O)c1cc2c(-c3ccccc3)ccn2c(C(C)N2CCC(N(C)C)CC2)c1C` (centres unmarked) [Example 129, N-((4,6-dimethyl-2-oxo-1,2-dihydropyridin-3-yl)methyl)-5-(1-(4-(dimethylamine)piperidine-1-yl)ethyl)-6-methyl-1-(1-methyl-1H-pyrazol-5-yl)indolizine-7-carboxamide], above 7.00; for `COc1cc(C)[nH]c(=O)c1CNC(=O)c1cc2c(-c3ccc(C)nn3)ccn2c([C@H](C)N2CCN(CC(F)(F)F)CC2)c1C` (single isomer, unassigned) [Compound 201, (S)—N-((4-methoxy-6-methyl-2-oxo-1,2-dihydropyridin-3-yl)methyl)-6-methyl-1-(6-methylpyridazin-3-yl)-5-(1-(4-(2,2,2-trifluoroethyl)piperazin-1-yl)ethyl)indolizine-7-formamide or (R)—N-((4-methoxy-6-methyl-2-oxo-1,2-dihydropyridin-3-yl)methyl)-6-methyl-1-(6-methylpyridazin-3-yl)-5-(1-(4-(2,2,2-trifluoroethyl)piperazin-1-yl)ethyl)indolizine-7-formamide], above 7.00.
As for `COc1ccc(-c2cc3cc(C(=O)NCc4c(C)cc(C)[nH]c4=O)c(C)c(C(C)N4CCOCC4)n3c2)c(F)c1` (centres unmarked) [Example 43, N-((4,6-dimethyl-2-oxo-1,2-dihydropyridin-3-yl)methyl)-2-(2-fluoro-4-methoxyphenyl)-6-methyl-5-(1-morphinolinylethyl)indolizine-7-carboxamide], the negative logarithm of the IC50 (pIC50) is above 7.00.
For `COc1cc(C)[nH]c(=O)c1CNC(=O)c1cc2c(-c3ccnc4c3CCN4)ccn2c(C(C)N2CCN(CC(F)(F)F)CC2)c1C` (centres unmarked) [Compound 207], the pIC50 was above 7.00.
As to `Cc1cc(C)c(CNC(=O)c2cc3cc(Br)cn3c(C(C)N3CCC(N4CCCC4)CC3)c2C)c(=O)[nH]1` (centres unmarked) [Example 145, 2-bromo-N-((4,6-dimethyl-2-oxo-1,2-dihydropyridin-3-yl)methyl)-6-methyl-5-(1-(4-(pyrrolidin-1-yl)piperidin-1-yl)ethyl)indolizine-7-carboxamide], the negative logarithm of the IC50 (pIC50) is 6.00 to 7.00.
